Test results as given in US6686358B2, “Bicyclic amino-pyrazinone compounds” (Les Laboratoires Servier, priority 2000, dated 2004).
Where a name gives a salt, the structure may show the parent alone.

Columns and labels:
Assay type in all cases: biochemical
human thrombin = target: T1, human thrombin (Homo sapiens, UniProt P00734); test: Inhibition of thrombin (fibrin formation from fibrinogen, 405 nm); details: human thrombin 0.7 nM, fibrinogen substrate, 20° C., compared with control without product; read-out: concentration inhibiting the enzymatic activity of thrombin by 50% (IC50)
T1 construct: purchased Sigma
Procedure: For in vitro evaluation of the inhibitory activity of the products of the invention on human thrombin (Sigma, specific activity 3230 NIH units/mg), purified human fibrinogen ([…], Stago) (Fg) was added to a given amount of thrombin (0.7 nM) that had previously been incubated with or without the inhibitor to be tested (20° C., 10 minutes).
Inhibitors, enzymes and substrates are diluted in the same buffer (0.01 mM phosphate buffer, pH 7.4, containing 0.12M sodium chloride and 0.05% bovine serum albumin) and then distributed in a polystyrene microtitre plate in a volume of 50 μl.
The fibrin formed by the thrombin or by the paranitroanilide released by the action of the serine protease is measured spectrophotometrically at 405 nm after from 15 to 30 minutes' reaction at 20° C.

[1] = test system: human plasma samples (thrombin time); test: Anti-coagulant activity, thrombin time (TT) in human plasma; details: concentration that doubles the thrombin time, 37° C.
Procedure: (§1) In order to evaluate the anti-coagulant activity of the compounds of the invention, the thrombin time (TT) and the activated cephalin time (ACT) were determined in human plasma samples. An ST4 coagulometer was used. A plasma deficient in platelets is lyophilised and taken up in distilled water. The TT is obtained using the reagent Thrombine Prest and the ACT is obtained using the reagent Céphaline PTT Automate. Inhibitor or solvent (10 μl) is added to the plasma (90 μl), which is then incubated for 2 minutes at 37° C. 100 μl of Thrombine Prest (TT) or of Céphaline PTT Automate (ACT) are added and at the same time the timer is started.
(§2) Under those conditions, the TT is of the order of 18 seconds and the ACT of the order of 12 seconds. The activity of an antagonist is evaluated by its capacity to prolong the TT and the ACT relative to the control. The effect of the inhibitors is expressed by the concentration in μM that doubles the coagulation time (Ctt2).

[2] = test system: human plasma samples (activated cephalin time); test: Anti-coagulant activity, activated cephalin time (ACT) in human plasma; details: concentration that doubles the activated cephalin time, 37° C.
Procedure: as §1, §2

| Structure (SMILES) | IC50 (human thrombin) | TT Ctt2 [1] | ACT Ctt2 [2] |
| --- | --- | --- | --- |
| NC(=NO)c1ccc(CNC(=O)[C@@H]2CCc3cnc(NCC(c4ccccc4)c4ccccc4)c(=O)n32)cc1 [Example 1, (6S)-N-{4-[amino(hydroxyimino)methyl]benzyl}-3-[(2,2-diphenyl-ethyl)amino]-4-oxo4,6,7,8-tetrahydropyrrolo[1,2-a]pyrazine-6-carboxamide] | 0.141 µM |  |  |
| N=C(N)NOCCNC(=O)[C@@H]1CCc2cnc(NCC(c3ccccc3)c3ccccc3)c(=O)n21 [Example 3, (6S)-N-[2-({[amino(imino)methyl]amino}oxy)ethyl]-3-[(2,2-diphenyl-ethyl)amino]-4-oxo4,6,7,8-tetrahydropyrrolo[1,2-a]pyrazine-6-carboxamide dihydrochloride] | 0.004 µM |  |  |
| O=C(NCc1ccccc1OCc1ccccn1)[C@@H]1CCc2cnc(NCCc3ccccn3)c(=O)n21 [Example 10, (6S)-4-oxo-3-{[2-(2-pyridyl)ethyl]amino}-N-[2-(2-pyridylmethoxy)-benzyl]-4,6,7,8-tetrahydropyrrolo[1,2-a]pyrazine-6-carboxamide] | 0.136 µM |  |  |
| O=C(NCc1ccccc1OCC1=NCCN1)[C@@H]1CCc2cnc(NCCc3ccccn3)c(=O)n21 [Example 15, (6S)-N-[2-(4,5-dihydro-1H-imidazol-2-ylmethoxy)benzyl]4-oxo-3-{[2-(2-pyridyl)ethyl]amino}-4,6,7,8-tetrahydropyrrolo[1,2-a]-pyrazine-6-carboxamide] | 0.012 µM | 0.19 µM | 1.91 µM |

More lines, main results first:

| IC50 (human thrombin) | Structure (SMILES) | TT Ctt2 [1] | ACT Ctt2 [2] |
| --- | --- | --- | --- |
| 0.31 µM | NC(=NO)c1ccc(CNC(=O)[C@@H]2CCc3cnc(NCCc4ccccn4)c(=O)n32)cc1 [Example 2, (6S)-N-{4-[amino(hydroxyimino)methyl]benzyl}-4-oxo-3-{(2-(2-pyridyl)ethyl]amino}-4,6,7,8-tetrahydropyrrolo[1,2-a]pyrazine-6-carboxamide] | 3.6 µM | 20 µM |
| 0.14 µM | Nc1noc2cc(CNC(=O)[C@@H]3CCc4cnc(NCCc5ccccn5)c(=O)n43)ccc12 [Example 17] |  |  |
| 0.022 µM | O=C(NCc1ccc2cc[nH]c2c1)[C@@H]1CCc2cnc(NCCc3ccccn3)c(=O)n21 [Example 18, (6S)-N-[1H-indol-6-ylmethyl)-4-oxo-3-{[2-(2-pyridyl)ethyl]amino}-4,6,7,8-tetrahydropyrrolo[1,2-a]pyrazine-6-carboxamide] | 0.28 µM | 3.07 µM |
